Laboratory results as given in publication PMC10726367 (Journal of Medicinal Chemistry, 2023).
“Also recorded” adds a separate entry of the source.

Key:
SERCA2 = molecular target: T1, SERCA2 (Homo sapiens, UniProt P16615); test: NADH-coupled ATPase assay on microsomal membrane vesicles from HEK-293T cells (HEK-293 ER); assay type: biochemical; details: for SERCA2a HEK ER effect class: 10 μM (1 μM for 12b per Figure S7), microsomal membrane vesicles; for SERCA2 ATPase activity in HEK-293 ER microsomes (in words): 10 μM, vs 0.1 v/v% DMSO
T1 construct: endogenous in cells; host or cells: HEK-293T cells, microsomal membrane vesicles (HEK-293 ER)
T1 sequence (P16615 whole entry): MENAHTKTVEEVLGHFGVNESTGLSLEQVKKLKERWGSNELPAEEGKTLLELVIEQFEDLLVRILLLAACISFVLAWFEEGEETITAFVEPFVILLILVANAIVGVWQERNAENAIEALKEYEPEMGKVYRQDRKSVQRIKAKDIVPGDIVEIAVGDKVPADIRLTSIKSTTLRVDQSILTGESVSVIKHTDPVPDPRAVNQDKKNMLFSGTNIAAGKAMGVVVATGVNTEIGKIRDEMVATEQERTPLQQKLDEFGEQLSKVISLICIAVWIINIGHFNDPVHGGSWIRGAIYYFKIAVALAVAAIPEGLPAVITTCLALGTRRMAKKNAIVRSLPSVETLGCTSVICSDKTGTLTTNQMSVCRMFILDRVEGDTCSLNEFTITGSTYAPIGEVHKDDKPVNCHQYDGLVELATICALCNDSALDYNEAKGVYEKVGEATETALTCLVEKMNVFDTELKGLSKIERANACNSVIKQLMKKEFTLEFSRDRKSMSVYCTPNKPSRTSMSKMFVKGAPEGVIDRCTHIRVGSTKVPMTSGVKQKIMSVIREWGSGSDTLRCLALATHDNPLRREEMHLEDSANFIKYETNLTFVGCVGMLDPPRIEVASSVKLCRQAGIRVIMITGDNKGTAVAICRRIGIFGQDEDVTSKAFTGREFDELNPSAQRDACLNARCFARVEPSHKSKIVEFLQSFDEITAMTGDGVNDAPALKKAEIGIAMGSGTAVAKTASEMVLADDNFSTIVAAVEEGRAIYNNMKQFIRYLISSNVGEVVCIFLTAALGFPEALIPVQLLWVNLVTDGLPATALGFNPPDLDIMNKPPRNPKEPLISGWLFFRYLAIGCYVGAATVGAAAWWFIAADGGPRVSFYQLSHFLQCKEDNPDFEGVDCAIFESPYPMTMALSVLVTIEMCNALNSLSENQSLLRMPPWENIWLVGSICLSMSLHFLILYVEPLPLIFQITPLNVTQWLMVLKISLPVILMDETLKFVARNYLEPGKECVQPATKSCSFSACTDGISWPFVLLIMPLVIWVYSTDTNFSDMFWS
Text: (§1) Cyclopropanol derivatives have a variety of biological activities including enzyme inhibition and antibacterial and anticancer properties.[47]−[50] However, there have been no published reports on cyclopropanol-containing molecules specifically acting as modulators of RyRs and/or activators of SERCA. To investigate more directly whether the compounds influence the SERCA2 activity, we performed nicotinamide adenine dinucleotide (NADH) fluorescence-coupled ATPase assay according to Radnai et al.[51] In this assay, the change in NADH coenzyme fluorescence reflects the level of the consumption of ATP, which we took as indicator of SERCA2 activity.[51],[52] ATP hydrolysis by SERCA2 is required to pump calcium ions into the SR. We assume that a higher rate of ATP hydrolysis reflects an increase in SERCA2 ATPase activity that leads to a greater pumping of calcium ions into the SR.
(§2) We observed the rate of NADH oxidation, which is coupled to ATP hydrolysis, by measuring changes in NADH intrinsic fluorescence over time after ATP injection into microsomal membranes enriched in SR vesicles isolated from mouse heart ventricles (mouse SR) and HEK-293T cells (HEK-293 ER). The presence of SERCA2 in mouse SR and HEK-293 ER of isolated microsomal vesicles was confirmed by Western blotting (Figures S5 and S6; for details see Experimental Section). The NADH fluorescence decrease was recorded on a multiwell plate reader TECAN Spark 20M (λex = 380 nm, λem = 470 nm). […] Consistent with our previous experiment on HL-1 cells, we observed a strong decrease in NADH fluorescence reflecting an increase in SERCA2a activity in SR microsomes derived from mouse heart ventricles (n = 3–5) in solutions containing the tested compounds compared to the 0.1 v/v% DMSO sample (Figure 6). […] Similar results were obtained in cardiac SR vesicles from the mouse heart. […] This difference may indicate isoform-specific effects of our compound in HEK-293 cells expressing mostly SERCA2b[53] versus mouse SR vesicles containing mostly SERCA2a.[54] In both experiments, we used CDN1163 as a positive control.
Isolation of microsomal membrane vesicles from HEK-293T cells (HEK-293 ER) was performed according to Stewart et al.[61] HEK-293T cells were harvested with Trypsin/EDTA, washed twice with ice-cold PBS containing protease inhibitor cocktail (cOmplete, Roche, Mannheim, Germany), and centrifuged 800 × g for 5 min. The pellet was resuspended in ice-cold lysis buffer (1 mM EDTA, 10 mM HEPES, cOmplete, pH 7.4) and incubated on ice for 20 min. After the cells were homogenized with a tight-fitting Dounce homogenizer (10–20 strokes), an equal volume of restoration buffer (500 mM sucrose, 10 mM HEPES, cOmplete, pH 7.2) was added and the cells were homogenized again (10–20 strokes). The homogenate was centrifuged at 10,000 × g for 20 min at 4 °C. The supernatant was collected and centrifuged again for another 2 h (10^5 × g at 4 °C). Then, the pellet was carefully resuspended in resuspension buffer (250 mM sucrose, 10 mM HEPES, cOmplete, pH 7.2) on ice by pipetting the solution up and down until it was fully dissolved. The obtained solution was diluted to a protein concentration of 15–20 μg/μL with the resuspension buffer; the aliquots were snap frozen in liquid nitrogen and stored at −80 °C until usage.
To determine whether new compounds could increase the SERCA2 activity, HEK-293 microsomes (40–150 μg of total protein) or mouse ventricular microsomes (1–20 μg of total protein) were diluted in 100 μL of the assay buffer used for measurement of SERCA activity (described below) and incubated at room temperature for 5 min prior to the experiments. The measurements of SERCA2 activity were made at 28 °C by using a NADH-coupled ATPase assay as described in Radnai et al. with slight modifications.[51] Briefly, the assay buffer contained 60 mM MOPS, 120 mM KCl, 6 mM MgCl2, 1 mM EGTA, 5 mM NaN3, 0.5 mM phosphoenolpyruvate, and 1.5 mM CaCl2, pH 7.0. […]

SERCA2a = molecular target: T2, SERCA2a (Mus musculus, UniProt O55143); test: NADH-coupled ATPase assay on mouse heart ventricular SR microsomes (mouse SR); assay type: biochemical; details: for SERCA2a mouse SR effect class: 10 μM (3 μM for 12b per Figure 6c), microsomal membrane vesicles; for SERCA2a ATPase activity in mouse SR vesicles (in words): 10 μM, vs 0.1 v/v% DMSO
T2 construct: host or cells: HL-1 cells
T2 sequence (O55143 1-998 isoform O55143-2): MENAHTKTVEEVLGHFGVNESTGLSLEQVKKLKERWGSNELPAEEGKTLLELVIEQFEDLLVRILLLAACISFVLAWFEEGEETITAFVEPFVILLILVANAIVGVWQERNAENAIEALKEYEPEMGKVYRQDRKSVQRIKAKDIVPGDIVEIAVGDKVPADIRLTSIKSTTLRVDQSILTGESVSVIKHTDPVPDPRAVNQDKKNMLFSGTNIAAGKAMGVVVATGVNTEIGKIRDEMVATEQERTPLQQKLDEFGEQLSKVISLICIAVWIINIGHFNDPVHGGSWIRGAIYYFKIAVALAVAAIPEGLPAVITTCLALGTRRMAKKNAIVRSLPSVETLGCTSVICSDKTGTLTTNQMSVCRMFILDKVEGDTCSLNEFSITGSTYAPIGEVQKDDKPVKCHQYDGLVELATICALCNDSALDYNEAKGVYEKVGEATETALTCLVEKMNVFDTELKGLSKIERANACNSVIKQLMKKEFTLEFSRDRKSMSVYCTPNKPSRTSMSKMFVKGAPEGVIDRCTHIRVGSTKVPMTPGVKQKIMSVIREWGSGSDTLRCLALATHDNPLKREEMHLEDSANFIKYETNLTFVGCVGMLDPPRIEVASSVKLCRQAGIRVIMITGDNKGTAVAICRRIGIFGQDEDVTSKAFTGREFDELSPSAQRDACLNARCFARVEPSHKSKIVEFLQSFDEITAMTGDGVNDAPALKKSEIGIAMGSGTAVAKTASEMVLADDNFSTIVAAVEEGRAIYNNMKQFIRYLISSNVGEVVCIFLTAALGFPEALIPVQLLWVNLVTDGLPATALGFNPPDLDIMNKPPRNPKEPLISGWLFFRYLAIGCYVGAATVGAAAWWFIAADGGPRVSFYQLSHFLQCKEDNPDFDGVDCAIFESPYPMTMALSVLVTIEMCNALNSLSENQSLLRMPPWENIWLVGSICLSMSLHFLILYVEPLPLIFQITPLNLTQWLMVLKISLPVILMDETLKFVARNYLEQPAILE
Text: as §1, §2
All animal procedures were performed in accordance with Directive 2010/63/EU of the European Parliament and the Council on the protection of animals used in research as well as Animal Welfare Law of the Federal Republic of Germany (Tierschutzgesetz der Bundesrepublik Deutschland, TierSchG). […] All mice were housed with a 12 h light/dark cycle with free access to food and water. Adult C57BL/6N mice of both genders were sedated with isoflurane in a sealed container and quickly euthanized by cervical dislocation. Heart ventricles were taken out instantly, washed with ice-cold PBS plus complete, cut into smaller pieces, and snap frozen in liquid nitrogen straight away.
Lysis buffer thawed on ice (10 mM EDTA, 10 mM HEPES, cOmplete, pH 7.4) was added, and the ventricles were homogenized with a Qiagen Cellruptor for 20 s. On ice, an equal volume of restoration buffer (500 mM sucrose, 10 mM HEPES, cOmplete, pH7.2) was added and briefly mixed. The homogenate was centrifuged at 10^4 × g for 20 min at 4 °C. The supernatant was collected and centrifuged again for another hour (10^5 × g at 4 °C). Then, the pellet was carefully resuspended in resuspension buffer (250 mM sucrose, 10 mM HEPES, cOmplete, pH 7.2) on ice by pipetting the solution up and down until fully dissolved. The obtained solution was diluted to a protein concentration of 5 μg/μL with the resuspension buffer, and the aliquots were snap frozen in liquid nitrogen and then stored at −80 °C until usage.
To determine whether new compounds could increase the SERCA2 activity, HEK-293 microsomes (40–150 μg of total protein) or mouse ventricular microsomes (1–20 μg of total protein) were diluted in 100 μL of the assay buffer used for measurement of SERCA activity (described below) and incubated at room temperature for 5 min prior to the experiments. […]

[1] = CytoTox-Glo Cytotoxicity Assay; assay type: cell-based; details: mouse; HL-1 cells, 100 μM solutions, 24 h incubation
Procedure: Cell viability was assessed using the CytoTox-Glo Cytotoxicity Assay according to the manufacturing procedure (Promega GmbH). Briefly, HL-1 cells were cultivated for 24 h in black-walled, clear-bottom 96-well microplates (Corning) covered with fibronectin in DMEM, containing different concentrations of the tested compound (10,000 cells/well). Luminescence of a luminogenic peptide substrate was measured before and after the addition of the lysis reagent (digitonin). The viable cell contribution was determined by a subtractive method. 0.1% DMSO-treated cells were taken as a control.

Structure (SMILES)	SERCA2a HEK ER effect class (SERCA2)	SERCA2a mouse SR effect class (SERCA2a)	SERCA2a ATPase activity in mouse SR vesicles (in words) (SERCA2a)	EC50 (SERCA2; ATPase activity, value, interval, read-out: SERCA2a HEK ER (EC50)) [nM]	EC50 (SERCA2a; ATPase activity, value, interval) [nM]	SERCA2 ATPase activity in HEK-293 ER microsomes (in words) (SERCA2)	viability at 24 h, 100 μM [1] [%]
COc1ccc2c(c1)CN(CCCCC1(O)CC1)CCS2 [11d, 1-(4-(7-Methoxy-2,3-dihydrobenzo[1,4-f]thiazepin-4(5H)-yl)butyl)cyclopropan-1-ol]	+	++	moderate			significant activation of SERCA2 ATPase; also recorded: slight	95
COc1ccc(OCCCNCCCCC2(O)CC2)cc1 [11b, 1-(4-((3-(4-Methoxyphenoxy)propyl)amino)butyl)cyclopropan-1-ol]		+				did not evoke a significant increase in ATPase activity	100
COc1ccc2c(c1)CN(CCCCNCCCCC1(O)CC1)CCS2 [11a, 1-(4-((4-(7-Methoxy-2,3-dihydrobenzo[1,4-f]thiazepin-4(5H)-yl)butyl)amino)butyl)cyclopropan-1-ol]		+				did not evoke a significant increase in ATPase activity; also recorded: could not detect SERCA2 activation	84
COc1ccc(SCCCNCCCCC2(O)CC2)cc1 [11c, 1-(4-((3-((4-Methoxyphenyl)thio)propyl)amino)butyl)cyclopropan-1-ol]	+	+++				significant activation of SERCA2 ATPase	73

Continued, in another order:

SERCA2a HEK ER effect class (SERCA2)	SERCA2a mouse SR effect class (SERCA2a)	SERCA2a ATPase activity in mouse SR vesicles (in words) (SERCA2a)	EC50 (SERCA2; ATPase activity, value, interval, read-out: SERCA2a HEK ER (EC50)) [nM]	EC50 (SERCA2a; ATPase activity, value, interval) [nM]	Structure (SMILES)	SERCA2 ATPase activity in HEK-293 ER microsomes (in words) (SERCA2)	viability at 24 h, 100 μM [1] [%]
++	+++		16	383	COc1ccc2c(c1)CN(CCCCN(CCCCC1(O)CC1)CCCCC1(O)CC1)CCS2 [12a, 1,1′-(((4-(7-Methoxy-2,3-dihydrobenzo[1,4-f]thiazepin-4(5H)-yl)butyl)azanediyl)bis(butane-4,1-diyl))bis(cyclopropan-1-ol)]		80
+	+				COc1ccc(SCCCN(CCCCC2(O)CC2)CCCCC2(O)CC2)cc1 [12c, 1,1′-(((3-((4-Methoxyphenyl)thio)propyl)azanediyl)bis(butane-4,1-diyl))bis(cyclopropan-1-ol)]		90
+	++	improvement of ATPase activity			COc1ccc2c(c1)CN(Cc1ccc(C(=O)O)cc1)CCS2 [ARM210, reference compound]	significant activation of SERCA2 ATPase	90
